Laboratory results: patent US20230406859A1, “METHOTREXATE ANALOGS AND METHODS OF USE” (The United States of America, as represented by the …, priority 2020, published 2023)
Where two headings read alike, the source gives them in different places.

Tests used:
Format in all cases: cell-based
DHFR [1] = target: T1, DHFR (Homo sapiens, UniProt P00374); settings: HBL1 cells, Western blot
T1 construct: Western blot detection of DHFR levels after treatment of HBL1 cells for 16 h; endogenous in cells; host or cells: HBL1 lymphoma cell line
T1 sequence (P00374 1-187): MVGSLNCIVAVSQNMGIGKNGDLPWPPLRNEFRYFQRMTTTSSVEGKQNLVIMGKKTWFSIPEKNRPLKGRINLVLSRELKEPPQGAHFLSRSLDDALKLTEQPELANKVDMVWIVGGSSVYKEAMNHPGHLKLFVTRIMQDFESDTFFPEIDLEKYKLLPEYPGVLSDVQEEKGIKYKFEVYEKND
Excerpt: Human embryonic kidney HEK293T cells and immortalized fibroblasts were maintained in DMEM (Gibco) supplemented with 10% fetal bovine serum (Hyclone), 2 mmol/L L-glutamine, Hepes (Gibco), and 100 U/mL penicillin/streptomycin (Invitrogen). The lymphoma cell line HBL1 was maintained in RPMI (Life Technology) supplemented with 5% fetal bovine serum (Hyclone), 2 mmol/L 1-glutamine, Hepes (Gibco), and 100 U/mL penicillin/streptomycin (Invitrogen).
Western blotting: Cells at confluence from 12-well plate treatments were washed with PBS and lysed in 75 μL/well NP40 lysis buffer (Cell Signaling), subjected to agitation and centrifugation. Approximately 100 μg of total protein was used per analysis. […] Blots were first incubated with 1:2000 dilution of anti-human DHFR antibody (Abcam, ab124814, host rabbit) for 16 h at 4° C. with shaking, washed 3× with TBS-T and incubated with 1:2000 dilution of anti-human β-actin primary antibody (Cell Signaling, host mouse) for 1 h at ambient temperature with shaking. Blots were then washed 3× with TBS-T and incubated with 1:5000 HRP secondary antibody (Novex, anti-Rabbit IgG raised in Goat, 1 mg/ml) for 1 h at ambient temperature, then washed with 3×TBS-T and developed with Pierce ECL Dura reagent for 5 min. Immunoreactive bands were imaged on a ChemiDoc Imaging System (Bio-Rad) with 20 s chemiluminescence exposure. The molecular weight marker ladder was imaged with colorimetric auto-exposure, and both images merged.

DHFR [2] = target: T1, DHFR; assay: Western blot detection of DHFR levels in fibroblasts; settings: 16 h at 1 μM
Protocol: (§1) Cell Culture Methods: Cells (HBL1, immortalized fibroblasts from a healthy donor, or 293T) were seeded at the numbers indicated in a 12-well plate in 500 ul. […] Human embryonic kidney HEK293T cells and immortalized fibroblasts were maintained in DMEM (Gibco) supplemented with 10% fetal bovine serum (Hyclone), 2 mmol/L L-glutamine, Hepes (Gibco), and 100 U/mL penicillin/streptomycin (Invitrogen). The lymphoma cell line HBL1 was maintained in RPMI (Life Technology) supplemented with 5% fetal bovine serum (Hyclone), 2 mmol/L 1-glutamine, Hepes (Gibco), and 100 U/mL penicillin/streptomycin (Invitrogen). Cells were cultured in incubators maintained at 37° C., with 5% CO2 and 85% humidity.
(§2) Western blotting: Cells at confluence from 12-well plate treatments were washed with PBS and lysed in 75 μL/well NP40 lysis buffer (Cell Signaling), subjected to agitation and centrifugation. Approximately 100 μg of total protein was used per analysis. Proteins were sized on a NuPAGE 12% Bis-Tris Gel, 1.0 mm×10 wells, proteins transferred to 0.2 μm nitrocellulose membrane for 60 min followed by blocking with 5% t milk in TBS-T for 1 h at ambient temperature with gentle shaking. […]

DHFR [3] = target: T1, DHFR; assay: Western blot detection of DHFR levels in 293T cells; settings: 16 h at 1 μM
Protocol: as §1, §2

[4] = target: T2, thymidylate synthase (TS) (Homo sapiens, UniProt P04818); assay: Western blot of thymidylate synthase levels in fibroblasts; settings: 16 h
T2 sequence (P04818 2-313 limits assumed): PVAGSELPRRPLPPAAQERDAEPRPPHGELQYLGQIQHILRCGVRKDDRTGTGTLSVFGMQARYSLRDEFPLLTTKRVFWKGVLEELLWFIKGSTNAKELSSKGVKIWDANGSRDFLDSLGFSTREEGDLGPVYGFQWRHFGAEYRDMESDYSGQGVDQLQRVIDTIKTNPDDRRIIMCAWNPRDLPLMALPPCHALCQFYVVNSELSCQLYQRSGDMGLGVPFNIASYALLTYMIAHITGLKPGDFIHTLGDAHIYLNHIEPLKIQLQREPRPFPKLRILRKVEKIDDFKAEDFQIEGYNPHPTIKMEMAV

[5] = target: T2, thymidylate synthase (TS); assay: Western blot of thymidylate synthase levels in 293T cells; settings: 16 h
HBL1 cell line = assay: CellTiter-Glo cell viability (cytotox), HBL1 cell line, 72 hours; settings: HBL1 cell line, CellTiter-Glo; unit inferred
Protocol: CellTiter-Glo viability assays: Five μL of cells (2500 cells) from the 12-well plate culture were plated into white 1536-well plates (Greiner, Monroe, NC, 789173-F) in 6 replicates. CellTiter-Glo Luminescent Cell Viability Assay (CTG) (Promega, G7572), 2.5 μL/well reagent was added with a BioRAPTR FRD (Beckman Coulter, Sykesville, MD), plates were incubated in the dark at ambient temperature for 10 min, and luminescence measured with a ViewLux 1430 Ultra HTS (Perkin Elmer, Waltham, MA).

[6] = target: T2, thymidylate synthase (TS); assay: Western blot of thymidylate synthase levels in HBL1 cells; set-up: Western blot detection of folate-cofactor dependent enzyme levels after treatment of HBL1 cells; endogenous in cells; host or cells: HBL1 lymphoma cell line; settings: 1 μM, 16 h
HBL1 cells = assay: CellTiter-Glo assay of cellular ATP levels in HBL1 cells (16 h)
Protocol: as §1
Cell-Titer-Glo viability assays: Five μL of cells (2500 cells) from the 12-well plate culture were plated into white 1536-well plates (Greiner, Monroe, NC, 789173-F) in 6 replicates. CellTiter-Glo Luminescent Cell Viability Assay (CTG) (Promega, G7572), 2.5 μL/well reagent was added with a BioRAPTR FRD (Beckman Coulter, Sykesville, MD), plates were incubated in the dark at ambient temperature for 10 min, and luminescence measured with a ViewLux 1430 Ultra HTS (Perkin Elmer, Waltham, MA).

[7] = target: T3, human DHFR-HiBiT fusion protein (Homo sapiens, UniProt P00374); assay: DHFR-HiBiT assay (high-throughput DHFR abundance) in HBL1 cells; settings: HBL1, 24 h, read-out: efficacy (%)
T3 construct: expressed in transfected cells; host or cells: HBL1 cells retrovirally infected with pBMN-Ires-Lyt-2 carrying DHFR-HiBiT
T3 sequence (P00374 with tags, fused parts or gaps): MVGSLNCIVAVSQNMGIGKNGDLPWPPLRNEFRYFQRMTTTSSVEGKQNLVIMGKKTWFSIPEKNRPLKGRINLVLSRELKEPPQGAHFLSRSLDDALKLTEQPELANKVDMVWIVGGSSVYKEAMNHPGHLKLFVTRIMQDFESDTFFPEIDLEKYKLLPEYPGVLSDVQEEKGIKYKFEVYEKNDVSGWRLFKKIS
Excerpt: The human DHFR-HiBiT construct was synthetized (Bio Basic) and cloned into the retroviral vector pBMN-Ires-Lyt-2 (provided by G. Nolan, Stanford University, Stanford, CA) which expresses the coding region of mouse CD8a (Lyt-2) using the restriction sites BamHI/XhoI. All constructs were sequenced to validate authenticity. Infected cells were positively selected based on murine CD8a expression using magnetic beads (Miltenyi Biotech).
Cell culture: Human embryonic kidney HEK293T cells were maintained in DMEM (Gibco) supplemented with 10% fetal bovine serum (Hyclone), 2 mmol/L 1-glutamine, HEPES (Gibco) and 100 U/mL penicillin/streptomycin (Invitrogen). The lymphoma cell line HBL1 were maintained in RPMI (Life Technology) supplemented with 5% fetal bovine serum (Hyclone), 2 mmol/L L-glutamine, HEPES (Gibco) and 100 U/mL penicillin/streptomycin (Invitrogen).
Transfection and retroviral infections: Transfections were performed using Lipofectamine 2000 (Invitrogen) according to the manufacturer's protocol. For retroviral infections, viruses were produced in HEK293T cells and used to infect HBL1 cell line. […] Supernatants containing the retrovirus were collected and filtered at 48- and 72-hours post-transfection. HBL1 cells were centrifuged and then resuspended with the retroviral supernatant with 8 μg/ml of polybrene. The cells were spin-infected twice on consecutive days at 2,500 rpm, at RT, for 90 minutes.
Lytic HiBiT Detection: Cells were plated in solid white 1536-well tissue culture plates (Greiner), at the concentration of 2000 cells/well. After treatment, an equal volume of Nano-Glo HiBiT Lytic Reagent (Promega) containing the substrate furimazine and Large BiT (LgBiT) was added to the cells according to the manufacturer's protocol. Cells were incubated for 10 min at room temperature, and luminescence was measured using a Perkin Elmer ViewLux microplate imager with 30 seconds of exposure time.

DHFR [8] = target: T4, DHFR (Homo sapiens, UniProt P00374); assay: Western blot for DHFR in MTX-resistant HBL1 cell line; set-up: dose or concentration left out as unconfirmed
T4 construct: endogenous in cells
T4 sequence (P00374 2-187): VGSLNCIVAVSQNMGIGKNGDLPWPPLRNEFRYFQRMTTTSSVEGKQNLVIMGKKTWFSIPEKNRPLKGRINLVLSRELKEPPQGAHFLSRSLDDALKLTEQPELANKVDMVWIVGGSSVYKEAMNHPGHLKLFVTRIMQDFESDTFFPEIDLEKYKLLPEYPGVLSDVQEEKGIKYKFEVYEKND
Protocol: Protein expression analysis: Cells were collected and homogenized in lysis buffer (20 mM Tris-HCl (pH 7.5), 150 mM NaCl, 1 mM Na2EDTA, 1 mM EGTA 1% Triton, 2.5 mM sodium pyrophosphate) with freshly added protease inhibitors (50 mM HEPES, pH 7.6, 150 mM NaCl, 20 mM EDTA, 10 mM sodium orthovanadate (Vanadate, Na3VO4), 100 mM NaF, 2% Triton X-100, 10 μg/ml aprotinin, 10 μg/ml leupeptin, 0.5 mm phenylmethyl sulfonyl fluoride). […] The membrane was immunoblotted with rabbit polyclonal anti-DHFR or mouse anti-β-actin antibodies. The immune complexes were detected by horseradish peroxidase-conjugated secondary antibodies (Thermo Scientific) and developed using a ChemiDoc MP Imager (Bio-Rad). To detect HiBiT-tagged proteins, the membrane was rinsed for 1 h in TBST and then incubated in LgBiT/buffer solution overnight. Nano-Glo® Luciferase Assay Substrate furimazine was added and incubated 5 minutes, and the blot was exposed on the imager.

For `CN(Cc1cnc2nc(N)nc(N)c2n1)c1ccc(C(=O)N[C@@H](CCC(=O)NCCCNc2cccc3c2C(=O)N(C2CCC(=O)NC2=O)C3=O)C(=O)O)cc1` (stereo partly drawn) [NCGC00685938, N2-(4-(((2,4-diaminopteridin-6-yl)methyl)(methyl)amino)benzoyl)-N5-(3-((2-(2,6-dioxopiperidin-3-yl)-1,3-dioxoisoindolin-4-yl)amino)propyl)-L-glutamine], the “effect on DHFR protein levels” value (DHFR [1]) was “essentially inactive”, the “effect on DHFR protein levels” value (DHFR [2]) was “significant degradation of DHFR” and the “effect on DHFR protein levels” value (DHFR [3]) was “essentially inactive”. For the same compound, the “effect on TS protein level” value [4] was “low but detectable increases in TS”, the “effect on TS protein level” value [5] was “no significant change in TS levels” and the IC50 (HBL1 cell line) was 1.66 µM. The “effect on TS protein level” value [6] was “slight increase in TS”.
With `CN(Cc1cnc2nc(N)nc(N)c2n1)c1ccc(C(=O)N[C@@H](CCC(=O)NCCOCCOCCOCCNC(=O)COc2cccc3c2C(=O)N(C2CCC(=O)NC2=O)C3=O)C(=O)O)cc1` (stereo partly drawn) [NCGC00685965, (19S)-19-(4-(((2,4-diaminopteridin-6-yl)methyl)(methyl)amino)benzamido)-1-((2-(2,6-dioxopiperidin-3-yl)-1,3-dioxoisoindolin-4-yl)oxy)-2,16-dioxo-6,9,12-trioxa-3,15-diazaicosan-20-oic acid] the “effect on DHFR protein levels” value (DHFR [1]) was “remained capable of depleting cellular DHFR”, the “effect on DHFR protein levels” value (DHFR [1]; listed as MTX-PROTAC 9) was “robust DHFR depletion” and the “effect on cellular ATP levels (acute cellular toxicity)” value (HBL1 cells) was “did not significantly alter ATP levels even up to 1 μM”. The Dmax [7] was 64.2%, the IC50 (HBL1 cell line) was 5.91 µM and the “depletion of cellular DHFR” value (DHFR [8]) was “remained capable of depleting cellular DHFR”. For the same compound, the “effect on TS protein level” value [6] was “slight increase in TS”.
